As usually defined, the melting point is the temperature, or range, at which the solid turns liquid.

We go through 17 molecules from patent publication USRE47689E1, “Compounds for treating spinal muscular atrophy” (PTC Therapeutics, Inc., priority 2011, dated 2019).

Read-outs that look alike come from different tables or passages of the source.

Data set [1] deals with Smn protein. Nature of the data set: Smn protein assay in cultured cells (SMN HTRF). The settings on record: 48 hours; for EC1.5x (concentration giving 1.5-fold Smn protein increase): SMA Type 1 patient fibroblast cells (GM03813), 7-point concentration curve, SMN HTRF, concentration producing 1.5 times Smn protein vs DMSO vehicle control, read-out: EC1.5x for Smn protein expression; for maximum fold (Fold) increase of Smn protein: SMA patient fibroblast cells, 7-point concentration data, fold increase relative to vehicle control (SMN HTRF). The data set is classed as cell-based, human. The essentials: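 Smn in SMA fibroblast lysates, measured by anti-SMN HTRF after 48 h compound exposure; EC1.5x from fold change over vehicle.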

The test system of data set [2] is SMN2 minigene (full length SMN2 minigene mRNA containing SMN2 exon 7). Briefly: SMN2 minigene mRNA splicing RT-qPCR assay in cultured cells. It is filed as cell-based, human. The conditions noted are these: Homo sapiens, HEK293-H, read-out: EC1.5x for production of full length SMN2 mRNA. The essentials: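 Lysates → one-step RT-qPCR, minigene-specific primers (0.4 μM final) + GAPDH multiplex, 40 cycles. FL/GAPDH vs DMSO; EC1.5x, star-binned.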
On the technique in general: Real-time PCR tracks product formation cycle by cycle.

Setting [3] is: HEK293H cells stably transfected with SMN2-A minigene, 24 hours, 7-point concentration curve, 1.5-fold relative to vehicle-treated cells.

The molecule `Cc1nn2cc(-c3cc4ccc(N5C[C@@H](C)N[C@@H](C)C5)cc4oc3=O)nc2s1` [Compound 443, 7-[(3R,5S)-3,5-dimethylpiperazin-1-yl]-3-(2-methylimidazo[2,1-b][1,3,4]thiadiazol-6-yl)-2H-chromen-2-one] returned a melting point of 225 to 228 °C. Further, in data set [1], the EC1.5x (concentration giving 1.5-fold Smn protein increase) fell in the range of 300 to 1000 nM; the “maximum fold (Fold) increase of Smn protein” value (shortened to “maximum fold (Fold) increase”) is “**** (fold increase between >1.5 and ≤1.65)”. In data set [2] (setting [3]), the EC (1.5-fold) was under 0.1 µM.
As for `COc1ccc(-c2cc3c(F)cc(N4CCN[C@H](C)C4)cc3oc2=O)cc1OC` [Compound 416, 3-(3,4-dimethoxyphenyl)-5-fluoro-7-[(3R)-3-methylpiperazin-1-yl]-2H-chromen-2-one], the melting point lay within 115 to 117 °C. Further, the “maximum fold (Fold) increase” value in data set [1] is “** (fold increase between >1.2 and ≤1.35)”. Also, the EC (1.5-fold) in data set [2] (setting [3]) was in the range of 1 to 3 µM.
Turning to `CN1CCN(c2cc(F)c3cc(-c4nc5c(F)cccc5o4)c(=O)oc3c2)CC1` [Compound 366, 5-fluoro-3-(4-fluoro-1,3-benzoxazol-2-yl)-7-(4-methylpiperazin-1-yl)-2H-chromen-2-one], the melting point is 256 to 260 °C. The “maximum fold (Fold) increase” value in data set [1] was “** (fold increase between >1.2 and ≤1.35)”. Further, in data set [2] (setting [3]), the EC (1.5-fold) was in the range of 0.3 to 1 µM.
Consider `CCOc1cccc(-c2cc3ccc(N4CCN(C)CC4)cc3oc2=O)n1` [Compound 381, 3-(6-ethoxypyridin-2-yl)-7-(4-methylpiperazin-1-yl)-2H-chromen-2-one], for which the melting point lay in the range of 170 to 172 °C. In addition, in data set [1], the “maximum fold (Fold) increase” value is on record as “* (maximum fold increase of ≤1.2)”. The EC (1.5-fold) in data set [2] (setting [3]) is 1 to 3 µM.
Turning to `CN1CCCN(c2ccc3cc(-c4nc5ccccc5o4)c(=O)oc3c2)CC1` [Compound 47, 3-(1,3-benzoxazol-2-yl)-7-(4-methyl-1,4-diazepan-1-yl)-2H-chromen-2-one], the melting point was in the range of 170 to 173 °C. Also, in data set [1], the “maximum fold (Fold) increase” value was “** (fold increase between >1.2 and ≤1.35)”. Moreover, the EC (1.5-fold) in data set [2] (setting [3]) lay in the range of 3 to 30 µM.
Turning to `Cc1cn2cc(-c3cc4ccc(N5CC[C@@H](N(C)C)C5)cc4oc3=O)cc2c(C)n1` [Compound 708, 7-[(3R)-3-(dimethylamino)pyrrolidin-1-yl]-3-(1,3-dimethylpyrrolo[1,2-a]pyrazin-7-yl)-2H-chromen-2-one], the melting point is 155 to 158 °C. In data set [1], the “maximum fold (Fold) increase” value is “** (fold increase between >1.2 and ≤1.35)”. Moreover, the EC (1.5-fold) in data set [2] (setting [3]) is under 0.1 µM.
Regarding `CCN1CCN(c2ccc3cc(-c4cn5cc(C)sc5n4)c(=O)oc3c2)CC1` [Compound 151, 7-(4-ethylpiperazin-1-yl)-3-(2-methylimidazo[2,1-b][1,3]thiazol-6-yl)-2H-chromen-2-one], the melting point fell in the range of 205 to 208 °C. In addition, the “maximum fold (Fold) increase” value in data set [1] is “* (maximum fold increase of ≤1.2)”. Also, in data set [2] (setting [3]), the EC (1.5-fold) fell in the range of 3 to 30 µM.
Molecule `Cc1cc2cc(-c3cc4ccc(N5CCN6CCC[C@H]6C5)cc4oc3=O)oc2c(C)n1` [Compound 745, 3-(5,7-dimethylfuro[2,3-c]pyridin-2-yl)-7-[(8aS)-hexahydropyrrolo[1,2-a]pyrazin-2(1H)-yl]-2H-chromen-2-one] showed a melting point of 203 to 205 °C. In addition, in data set [1], the EC1.5x (concentration giving 1.5-fold Smn protein increase) was under 300 nM and the “maximum fold (Fold) increase” value was “***** (fold increase >1.65)”. Moreover, the EC (1.5-fold) in data set [2] (setting [3]) is under 0.1 µM.
In the case of `Cc1ccn2cc(-c3cc4ccc(N5CCNC6(CCCC6)C5)cc4oc3=O)nc2c1` [Compound 596, 7-(6,9-diazaspiro[4.5]dec-9-yl)-3-(7-methylimidazo[1,2-a]pyridin-2-yl)-2H-chromen-2-one], the melting point came to 180 °C. For the same molecule, in data set [1], the “maximum fold (Fold) increase” value is “** (fold increase between >1.2 and ≤1.35)”. Further, the EC (1.5-fold) in data set [2] (setting [3]) lay in the range of 0.3 to 1 µM.
Regarding `O=C(Oc1ccc2cc(-c3nc4c(Cl)cccc4s3)c(=O)oc2c1)N1CCNCC1` [Cpd 42, 3-(4-chloro-1,3-benzothiazol-2-yl)-2-oxo-2H-chromen-7-yl piperazine-1-carboxylate], the melting point was in the range of 236 to 239 °C. The “maximum fold (Fold) increase” value in data set [1] is on record as “* (maximum fold increase of ≤1.2)”. Besides, the EC (1.5-fold) in data set [2] (24 h) is 1 to 3 µM.
As for `C[C@H]1CN(c2ccc3cc(-c4ccc(N(C)C)nc4)c(=O)oc3c2)CCN1` [Compound 548, 3-[6-(dimethylamino)pyridin-3-yl]-7-[(3S)-3-methylpiperazin-1-yl]-2H-chromen-2-one], the melting point is 194 to 196 °C. Further, in data set [1], the “maximum fold (Fold) increase” value is given as “* (maximum fold increase of ≤1.2)”. In data set [2] (setting [3]), the EC (1.5-fold) was 3 to 30 µM.
The molecule `Cc1cnc2nc(-c3cc4ccc(N5CCCNCC5)cc4oc3=O)cn2c1` [Compound 378, 7-(1,4-diazepan-1-yl)-3-(6-methylimidazo[1,2-a]pyrimidin-2-yl)-2H-chromen-2-one] gave a melting point of 275 to 278 °C. For the same molecule, the “maximum fold (Fold) increase” value in data set [1] was “** (fold increase between >1.2 and ≤1.35)”. Also, in data set [2] (setting [3]), the EC (1.5-fold) lay in the range of 0.1 to 0.3 µM.
`Cc1cn2cc(-c3cc4ccc(N5CC(N6CCCCC6C)C5)cc4oc3=O)nc2c(C)n1` (centres unmarked) [Compound 942, 3-(6,8-dimethylimidazo[1,2-a]pyrazin-2-yl)-7-[3-(2-methylpiperidin-1-yl)azetidin-1-yl]-2H-chromen-2-one] showed a melting point of 220 to 228 °C. Moreover, in data set [1], the EC1.5x (concentration giving 1.5-fold Smn protein increase) is 1000 to 3000 nM; the “maximum fold (Fold) increase” value is “*** (fold increase between >1.35 and ≤1.5)”. Also, in data set [2] (setting [3]), the EC (1.5-fold) is under 0.1 µM.
`Cc1cc2cc(-c3cc4ccc(N5CCCN(C)CC5)cc4oc3=O)oc2c(C)n1` [Compound 775, 3-(5,7-dimethylfuro[2,3-c]pyridin-2-yl)-7-(4-methyl-1,4-diazepan-1-yl)-2H-chromen-2-one] registered a melting point of 243 to 245 °C. Besides, in data set [1], the EC1.5x (concentration giving 1.5-fold Smn protein increase) is under 300 nM; the “maximum fold (Fold) increase” value is “**** (fold increase between >1.5 and ≤1.65)”. Further, the EC (1.5-fold) in data set [2] (setting [3]) is under 0.1 µM.
`Cc1cn2cc(-c3cc4ccc(N5CCNCC5)cc4oc3=O)nc2s1` [Compound 96, 3-(2-methylimidazo[2,1-b][1,3]thiazol-6-yl)-7-(piperazin-1-yl)-2H-chromen-2-one] displayed a melting point of over 310 °C. Moreover, in data set [1], the EC1.5x (concentration giving 1.5-fold Smn protein increase) is 3000 to 10000 nM; the “maximum fold (Fold) increase” value was “*** (fold increase between >1.35 and ≤1.5)”. In addition, the EC (1.5-fold) in data set [2] (setting [3]) lay in the range of 0.1 to 0.3 µM.
`Cc1ccc(-c2cc3ccc(N4CCN(C)CC4)cc3oc2=O)cn1` [Compound 164, 7-(4-methylpiperazin-1-yl)-3-(6-methylpyridin-3-yl)-2H-chromen-2-one] showed a melting point of 158 to 160 °C. Further, in data set [1], the “maximum fold (Fold) increase” value is listed as “* (maximum fold increase of ≤1.2)”. Besides, the EC (1.5-fold) in data set [2] (setting [3]) fell in the range of 1 to 3 µM.
`C[C@@H]1CN[C@@H](C)CN1c1ccc2cc(-c3cn4cc(Cl)ccc4n3)c(=O)oc2c1` [Compound 93, 3-(6-chloroimidazo[1,2-a]pyridin-2-yl)-7-[(2R,5S)-2,5-dimethylpiperazin-1-yl]-2H-chromen-2-one] displayed a melting point of 245 to 247 °C. In addition, the “maximum fold (Fold) increase” value in data set [1] was “** (fold increase between >1.2 and ≤1.35)”. The EC (1.5-fold) in data set [2] (setting [3]) is 1 to 3 µM.
